According to patent US9714235B2, “Quinazoline derivatives, compositions thereof, and use as pharmaceuticals” (Shanghai Fochon Pharmaceutical Co., Ltd., priority 2013, dated 2017):
Values belong to the molecule of their own block, whether it stands above or below them.

Legend:
NCI-N87 tumor cells = experiment: N87 tumor in vivo study; design: species or system Female BALB/cA-nude mice; conditions: for Average Tumor Volume Day 21 / Inhibition rate / T/C: Day 21; for Average Tumor Volume Day 0: Day 0 (baseline)
Experimental: Female BALB/cA-nude mice were implanted with NCI-N87 tumor cells. Tumor measurements were recorded twice a week. Randomize animals to groups (Day 0) when tumors reached an average size of 60-150 mm^3. Group size was 6 mice. Test compound was administered p.o. once daily for 21 days. Tumor inhibition values were determined at Day 21.
Tumor volume (V) was calculated as follow: V=½×a×b, where a and b are the length and width of the tumor respectively. Relative tumor proliferation rate was calculated as follow: T/C (%)=(T−T0)/(C−C0)×100, where T and C are the tumor volume of test compound group and control group on Day 21, T0 and C0 are the tumor volume of test compound group and control group on Day 0.

[1] = test system: BT474 (EGFR overexpression) cells; experiment: Cell proliferation assay (MTS), BT474; type: cell-based; conditions: Homo sapiens, BT-474, 168 h, 7 d incubation
Experimental: (§1) Cell Proliferation Asssay
(§2) Materials and Preparation of Reagents
(§3) MTS testing kit was purchased from Promega. […] Dimethyl sulfoxide (DMSO) was purchased from Sigma.
(§4) Inhibition Activity of Cell Proliferation
(§5) In this assay, inhibition of EGFR and ErbB2 was detected by the inhibition of BT474 and N87 cells proliferation. BT474 cells were cultured in culture flasks to 40-80% confluence in DMEM plus 10% fetal bovine serum. […] Cells were collected and plated onto 96-well plates at desired cell density (BT474: 1000 cells/well; N87: 1000 cells/well). BT474 plates were incubated 48 h at 37° C., with 5% CO2 to adhere. N87 plates were incubated overnight at 37° C., with 5% CO2 to adhere. […] Place BT474 plates at 37° C., with 5% CO2 for 7d. Place N87 plates at 37° C., with 5% CO2 for 72 h. After removing the medium, 20 μl MTS/100 μl medium mixture solution were added to each well and incubate the plates for exactly 2 hours. Measure absorbance at 490 nm and 650 nm (reference wavelength). IC50 was calculated using GraphPad Prism 5.0.

[2] = test system: N87 (EGFR and ErbB2 overexpression) cells; experiment: Cell proliferation assay (MTS), N87; type: cell-based; conditions: 72 h incubation
Experimental: as §1, §2, §3, §4, §5

[3] = 20 mg/kg p.o. once daily for 21 days
[4] = 2 mg/kg p.o. once daily for 21 days
[5] = 5 mg/kg p.o. once daily for 21 days
[6] = 10 mg/kg p.o. once daily for 21 days
[7] = 320 mg/kg p.o. once daily for 21 days

IC50 [1]: 2.3 nM
SMILES: COc1cc2ncnc(Nc3ccc(F)c(Cl)c3)c2cc1NC(=O)/C=C/CN1CCC1CO (centres unmarked) [Example 1, (E)-N-(4-(3-chloro-4-fluorophenylamino)-7-methoxyquinazolin-6-yl)-4-(2-(hydroxymethyl)azetidin-1-yl)but-2-enamide]
IC50 [2]: 5 nM

IC50 [1]: 1.6 nM
SMILES: COC[C@H]1CCN1C/C=C/C(=O)Nc1cc2c(Nc3ccc(F)c(Cl)c3)ncnc2cc1OC [Example 2, (R,E)-N-(4-(3-chloro-4-fluorophenylamino)-7-methoxyquinazolin-6-yl)-4-(2-(methoxymethyl)azetidin-1-yl)but-2-enamide]
IC50 [2]: 1.6 nM | Average Tumor Volume Day 21 (NCI-N87 tumor cells; [4]): 584.4 ± 71.3 mm^3 | Inhibition rate (NCI-N87 tumor cells; [4]): 61% | T/C (NCI-N87 tumor cells; [4]): 39% | Average Tumor Volume Day 0 (NCI-N87 tumor cells; 2 mg/kg p.o. once daily): 113.3 ± 4.4 mm^3 | Average Tumor Volume Day 21 (NCI-N87 tumor cells; [5]): 54.3 ± 3.8 mm^3 | Inhibition rate (NCI-N87 tumor cells; [5]): 154% | T/C (NCI-N87 tumor cells; [5]): −54% | Average Tumor Volume Day 0 (NCI-N87 tumor cells; 5 mg/kg p.o. once daily): 117.6 ± 7.2 mm^3

IC50 [1]: 1.4 nM
SMILES: COCCOc1cc2ncnc(Nc3ccc(F)c(Cl)c3)c2cc1NC(=O)/C=C/CN1CC[C@@H]1COC [Example 6, (R,E)-N-(4-(3-chloro-4-fluorophenylamino)-7-(2-methoxyethoxy)quinazolin-6-yl)-4-(2-(methoxymethyl)azetidin-1-yl)but-2-enamide]
Average Tumor Volume Day 21 (NCI-N87 tumor cells; [5]): 176.3 ± 24.2 mm^3 | Inhibition rate (NCI-N87 tumor cells; [5]): 95% | T/C (NCI-N87 tumor cells; [5]): 5% | Average Tumor Volume Day 0 (NCI-N87 tumor cells; 5 mg/kg p.o. once daily): 116.9 ± 7.8 mm^3 | Average Tumor Volume Day 21 (NCI-N87 tumor cells; [6]): 49.0 ± 3.9 mm^3 | Inhibition rate (NCI-N87 tumor cells; [6]): 157% | T/C (NCI-N87 tumor cells; [6]): −57% | Average Tumor Volume Day 0 (NCI-N87 tumor cells; 10 mg/kg p.o. once daily): 114.8 ± 7.8 mm^3

IC50 [1]: 5.8 nM
SMILES: COCCOc1cc2ncnc(Nc3ccc(F)c(Cl)c3)c2cc1NC(=O)/C=C/CN1CC[C@H]1COC [Example 7, (S,E)-N-(4-(3-chloro-4-fluorophenylamino)-7-(2-methoxyethoxy)quinazolin-6-yl)-4-(2-(methoxymethyl)azetidin-1-yl)but-2-enamide]

IC50 [1]: 21.7 nM
SMILES: COC[C@@H]1CCN1C/C=C/C(=O)Nc1cc2c(Nc3ccc(F)c(Cl)c3)ncnc2cc1OCC1CC1 [Example 10, (S,E)-N-(4-(3-chloro-4-fluorophenylamino)-7-(cyclopropylmethoxy)quinazolin-6-yl)-4-(2-(methoxymethyl)azetidin-1-yl)but-2-enamide]

IC50 [1]: 2.9 nM
SMILES: COCC1CCN1C/C=C/C(=O)Nc1cc2c(Nc3ccc(F)c(Cl)c3)ncnc2cc1O[C@H]1CCOC1 (stereo partly drawn) [Example 12, (E)-N-(4-(3-chloro-4-fluorophenylamino)-7-((S)-tetrahydrofuran-3-yloxy)quinazolin-6-yl)-4-(2-(methoxymethyl)azetidin-1-yl)but-2-enamide]
IC50 [2]: 1.5 nM

IC50 [1]: 17.5 nM
SMILES: O=C(/C=C/CN1CCC1CO)Nc1cc2c(Nc3ccc(F)c(Cl)c3)ncnc2cc1OC[C@@H]1COCCO1 (stereo partly drawn) [Example 16, (E)-N-(7-(((S)-1,4-dioxan-2-yl)methoxy)-4-(3-chloro-4-fluorophenylamino)quinazolin-6-yl)-4-(2-(hydroxymethyl)azetidin-1-yl)but-2-enamide]
IC50 [2]: 39.5 nM

IC50 [1]: 22.2 nM
SMILES: COC[C@@H]1CCN1C/C=C/C(=O)Nc1cc2c(Nc3ccc(F)c(Cl)c3)ncnc2cc1OC[C@H]1[C@@H]2COC[C@@H]21 [Example 20, (E)-N-(7-((1R,5S,6r)-3-oxabicyclo[3.1.0]hexan-6-ylmethoxy)-4-(3-chloro-4-fluorophenylamino)quinazolin-6-yl)-4-((S)-2-(methoxymethyl)azetidin-1-yl)but-2-enamide]

The remaining lines, values behind:

SMILES: CN(C)C/C=C/C(=O)Nc1cc2c(Nc3ccc(F)c(Cl)c3)ncnc2cc1O[C@H]1CCOC1 [Afatinib, reference compound]
Average Tumor Volume Day 21 (NCI-N87 tumor cells; [3]): 72.9 ± 7.9 mm^3 | Inhibition rate (NCI-N87 tumor cells; [3]): 138% | T/C (NCI-N87 tumor cells; [3]): −38% | Average Tumor Volume Day 0 (NCI-N87 tumor cells; 20 mg/kg p.o. once daily): 117.2 ± 8.3 mm^3

SMILES: COC[C@@H]1CCN1C/C=C/C(=O)Nc1cc2c(Nc3ccc(F)c(Cl)c3)ncnc2cc1OC [Example 3, (S,E)-N-(4-(3-chloro-4-fluorophenylamino)-7-methoxyquinazolin-6-yl)-4-(2-(methoxymethyl)azetidin-1-yl)but-2-enamide]
IC50 [1]: 21.5 nM | IC50 [2]: 14.2 nM

SMILES: CCOc1cc2ncnc(Nc3ccc(F)c(Cl)c3)c2cc1NC(=O)/C=C/CN1CC[C@@H]1COC [Example 4, (R,E)-N-(4-(3-chloro-4-fluorophenylamino)-7-ethoxyquinazolin-6-yl)-4-(2-(methoxymethyl)azetidin-1-yl)but-2-enamide]
IC50 [1]: 2 nM | Average Tumor Volume Day 21 (NCI-N87 tumor cells; [4]): 436.6 ± 60.5 mm^3 | Inhibition rate (NCI-N87 tumor cells; [4]): 73% | T/C (NCI-N87 tumor cells; [4]): 27% | Average Tumor Volume Day 0 (NCI-N87 tumor cells; 2 mg/kg p.o. once daily): 105.6 ± 9.9 mm^3 | Average Tumor Volume Day 21 (NCI-N87 tumor cells; [5]): 49.7 ± 5.4 mm^3 | Inhibition rate (NCI-N87 tumor cells; [5]): 154% | T/C (NCI-N87 tumor cells; [5]): −54% | Average Tumor Volume Day 0 (NCI-N87 tumor cells; 5 mg/kg p.o. once daily): 109.1 ± 10.1 mm^3

SMILES: O=C(/C=C/CN1CCC1CO)Nc1cc2c(Nc3ccc(F)c(Cl)c3)ncnc2cc1OCC1CC1 (centres unmarked) [Example 8, (E)-N-(4-(3-chloro-4-fluorophenylamino)-7-(cyclopropylmethoxy)quinazolin-6-yl)-4-(2-(hydroxymethyl)azetidin-1-yl)but-2-enamide]
IC50 [1]: 9.5 nM | IC50 [2]: 11.8 nM

SMILES: COC[C@H]1CCN1C/C=C/C(=O)Nc1cc2c(Nc3ccc(F)c(Cl)c3)ncnc2cc1OCC1CC1 [Example 9, (R,E)-N-(4-(3-chloro-4-fluorophenylamino)-7-(cyclopropylmethoxy)quinazolin-6-yl)-4-(2-(methoxymethyl)azetidin-1-yl)but-2-enamide]
IC50 [1]: 6.6 nM | Average Tumor Volume Day 21 (NCI-N87 tumor cells; [5]): 349.3 ± 43.8 mm^3 | Inhibition rate (NCI-N87 tumor cells; [5]): 81% | T/C (NCI-N87 tumor cells; [5]): 19% | Average Tumor Volume Day 0 (NCI-N87 tumor cells; 5 mg/kg p.o. once daily): 124.1 ± 8.5 mm^3 | Average Tumor Volume Day 21 (NCI-N87 tumor cells; [6]): 60.3 ± 6.9 mm^3 | Inhibition rate (NCI-N87 tumor cells; [6]): 150% | T/C (NCI-N87 tumor cells; [6]): −50% | Average Tumor Volume Day 0 (NCI-N87 tumor cells; 10 mg/kg p.o. once daily): 120.2 ± 13.0 mm^3

SMILES: O=C(/C=C/CN1CCC1CO)Nc1cc2c(Nc3ccc(F)c(Cl)c3)ncnc2cc1O[C@H]1CCOC1 (stereo partly drawn) [Example 11, (E)-N-(4-(3-chloro-4-fluorophenylamino)-7-((S)-tetrahydrofuran-3-yloxy)quinazolin-6-yl)-4-(2-(hydroxymethyl)azetidin-1-yl)but-2-enamide]
IC50 [1]: 3.9 nM | IC50 [2]: 9.6 nM

SMILES: O=C(/C=C/CN1CCC1CO)Nc1cc2c(Nc3ccc(F)c(Cl)c3)ncnc2cc1OC[C@H]1COCCO1 (stereo partly drawn) [Example 13, (E)-N-(7-(((R)-1,4-dioxan-2-yl)methoxy)-4-(3-chloro-4-fluorophenylamino)quinazolin-6-yl)-4-(2-(hydroxymethyl)azetidin-1-yl)but-2-enamide]
IC50 [1]: 2.7 nM | IC50 [2]: 13.5 nM

SMILES: COC[C@H]1CCN1C/C=C/C(=O)Nc1cc2c(Nc3ccc(F)c(Cl)c3)ncnc2cc1OC[C@H]1COCCO1 [Example 14, (E)-N-(7-(((R)-1,4-dioxan-2-yl)methoxy)-4-(3-chloro-4-fluorophenylamino)quinazolin-6-yl)-4-((R)-2-(methoxymethyl)azetidin-1-yl)but-2-enamide]
IC50 [1]: 2.9 nM

SMILES: COC[C@@H]1CCN1C/C=C/C(=O)Nc1cc2c(Nc3ccc(F)c(Cl)c3)ncnc2cc1OC[C@H]1COCCO1 [Example 15, (E)-N-(7-(((R)-1,4-dioxan-2-yl)methoxy)-4-(3-chloro-4-fluorophenylamino)quinazolin-6-yl)-4-((S)-2-(methoxymethyl)azetidin-1-yl)but-2-enamide]
IC50 [1]: 25 nM

SMILES: O=C(/C=C/CN1CCC1CO)Nc1cc2c(Nc3ccc(F)c(Cl)c3)ncnc2cc1OC[C@H]1[C@@H]2COC[C@@H]21 (stereo partly drawn) [Example 18, (E)-N-(7-((1R,5S,6r)-3-oxabicyclo[3.1.0]hexan-6-ylmethoxy)-4-(3-chloro-4-fluorophenylamino)quinazolin-6-yl)-4-(2-(hydroxymethyl)azetidin-1-yl)but-2-enamide]
IC50 [1]: 10.8 nM | IC50 [2]: 11.2 nM

SMILES: CS(=O)(=O)CCNCc1ccc(-c2ccc3ncnc(Nc4ccc(OCc5cccc(F)c5)c(Cl)c4)c3c2)o1 [Lapatinib, reference compound]
Inhibition rate (NCI-N87 tumor cells; [7]): 87% | T/C (NCI-N87 tumor cells; [7]): 13% | Average Tumor Volume Day 0 (NCI-N87 tumor cells): 124.4 ± 7.3 mm^3
